Results on ten molecules are retold here after US20240116985A1, “STAPLED PEPTIDES AND METHODS THEREOF” (priority 2020, published 2024).

Where two headings read alike, the source gives them in different places.

Series [1] has as its target T1, full-length beta-Catenin (Uniprot ID P35222) (Homo sapiens, UniProt P35222).
T1 construct: 10 nM full-length beta-Catenin (Uniprot ID P35222)
T1 sequence (P35222 1-781): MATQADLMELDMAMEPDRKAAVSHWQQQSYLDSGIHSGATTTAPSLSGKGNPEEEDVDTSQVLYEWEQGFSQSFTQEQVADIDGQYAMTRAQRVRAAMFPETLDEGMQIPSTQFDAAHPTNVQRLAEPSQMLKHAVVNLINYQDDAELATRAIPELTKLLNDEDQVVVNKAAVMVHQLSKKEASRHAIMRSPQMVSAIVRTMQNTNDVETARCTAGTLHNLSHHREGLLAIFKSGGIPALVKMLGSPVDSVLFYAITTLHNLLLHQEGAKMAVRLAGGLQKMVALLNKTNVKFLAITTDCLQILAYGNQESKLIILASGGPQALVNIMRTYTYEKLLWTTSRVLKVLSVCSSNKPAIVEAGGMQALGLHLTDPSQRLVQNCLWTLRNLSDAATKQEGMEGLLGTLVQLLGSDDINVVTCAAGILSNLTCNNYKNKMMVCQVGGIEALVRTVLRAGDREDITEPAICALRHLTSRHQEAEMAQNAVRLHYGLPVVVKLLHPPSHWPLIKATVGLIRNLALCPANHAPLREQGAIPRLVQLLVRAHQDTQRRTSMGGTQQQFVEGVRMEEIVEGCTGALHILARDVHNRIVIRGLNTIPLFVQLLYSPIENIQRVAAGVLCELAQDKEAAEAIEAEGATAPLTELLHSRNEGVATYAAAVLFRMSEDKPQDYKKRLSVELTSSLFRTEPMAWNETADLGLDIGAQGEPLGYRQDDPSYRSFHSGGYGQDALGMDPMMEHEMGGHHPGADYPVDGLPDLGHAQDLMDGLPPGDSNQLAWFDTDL
The series can be described thus: Fluorescence polarization IC50 (beta-catenin / 5FAM-TCF4 10-53 competition). It counts as binding. On the technique in general: Polarisation of emitted light reports the rotation of a fluorescent probe.

Series [2] can be described thus: CHI Log D procedure. It counts as physicochemical. The settings on record: pH 7.4.
The target of series [3] is T2, full-length B-Catenin (Uniprot ID P35222) (Homo sapiens, UniProt P35222).
T2 construct: 65 nM full-length B-Catenin (Uniprot ID P35222)
T2 sequence (P35222 1-781): T1 sequence (P35222 1-781)
Kind of series: Alphascreen binding assay (beta-catenin / biotin-TCF4 10-53). An outline of the steps:
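Final concentrations: 65 nM full-length human β-catenin plus 10 nM biotin-TCF4(10-53) peptide, test peptide 3-fold from 10 uM to 5 nM, preincubated 15 min at 20 °C in Tris pH 8.0/250 mM NaCl buffer. Nickel-chelate AlphaScreen donor/acceptor beads then added for 60 min in the dark; duplicate reads fitted to 1:1 binding model with Hill slope.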
In general terms: Bead proximity is the source of the signal in Alpha formats.

[4] abbreviates: Table E2-1, read-out: beta-Catenin FP IC50.
Where [5] appears, read: fluorescence polarization, beta-catenin, read-out: FP EC50.

What is called EC50 is the concentration needed to bring the measured effect to its halfway point. A lower EC50 goes with greater potency.

On to `CC[C@H](C)[C@@H]1NC(=O)[C@H](CC(=O)O)NC(=O)[C@]2(CC=CCCCC3(CCCC=CCCCCCC[C@@](C)(C(=O)N[C@@H](Cc4ccccc4)C(=O)N[C@@H](Cc4c[nH]c5ccccc45)C(=O)N[C@@H](Cc4c[nH]cn4)C(N)=O)NC(=O)[C@H](C(C)C)NC(=O)[C@H](Cc4ccccc4)NC(=O)[C@H](C)NC(=O)[C@H](C)NC(=O)[C@H](CCC(=O)O)NC(=O)[C@H](CC(=O)O)NC3=O)NC1=O)CCCN2C(C)=O` (stereo partly drawn) [I-176, Ac-PL3-Asp-Ile-B5-Asp-Glu-Ala-Ala-Phe-Val-S8-Phe-Trp-His-NH2], for which the IC50 in series [1] (setting [4]) and in series [1] (setting [5]) was 1990 nM each time. In series [2], the “CHI Log D” value came to 2.58. The molecule also yielded an EC50 in series [3] of 549 nM.

In the case of `CC(=O)N1CCC[C@]12CC=CCCCC1(CCCC=CCCCCCC[C@@](C)(C(=O)N[C@@H](Cc3ccccc3)C(=O)N[C@@H](Cc3c[nH]c4ccccc34)C(=O)N[C@@H](Cc3c[nH]cn3)C(N)=O)NC(=O)[C@H](CCC(N)=O)NC(=O)[C@H](Cc3ccccc3)NC(=O)[C@H](C)NC(=O)[C@H](C)NC(=O)[C@H](CCC(=O)O)NC(=O)[C@H](CC(=O)O)NC1=O)NC(=O)[C@H](C)NC(=O)[C@H](CC(=O)O)NC2=O` (stereo partly drawn) [I-178, Ac-PL3-Asp-Ala-B5-Asp-Glu-Ala-Ala-Phe-Gln-S8-Phe-Trp-His-NH2], the IC50 in series [1] (setting [4]) and in series [1] (setting [5]) was 1630 nM each time. The “CHI Log D” value in series [2] turned out to be 1.913. Further, the EC50 in series [3] came out at 152 nM.

Take `CC[C@H](C)[C@@H]1NC(=O)[C@H](CC(=O)O)NC(=O)[C@]2(CC=CCCCC3(CCCC=CCCCCCC[C@@](C)(C(=O)N[C@@H](Cc4ccccc4)C(=O)N[C@@H](Cc4c[nH]c5ccccc45)C(=O)N[C@@H](CCC(N)=O)C(N)=O)NC(=O)[C@H](CCC(N)=O)NC(=O)[C@H](Cc4ccccc4)NC(=O)[C@H](C)NC(=O)[C@H](C)NC(=O)[C@H](CCC(=O)O)NC(=O)[C@H](CC(=O)O)NC3=O)NC1=O)CCCN2C(C)=O` (stereo partly drawn) [I-180, Ac-PL3-Asp-Ile-B5-Asp-Glu-Ala-Ala-Phe-Gln-S8-Phe-Trp-Gln-NH2]: the IC50 in series [1] (setting [4]) is 56 nM. Further, the “CHI Log D” value in series [2] came to 2.193. The EC50 in series [3] stood at 88 nM.

On to `CC[C@H](C)[C@@H]1NC(=O)[C@H](CC(=O)O)NC(=O)[C@]2(CC=CCCCC3(CCCC=CCCCCCC[C@@](C)(C(=O)N[C@@H](Cc4ccccc4)C(=O)N[C@@H](Cc4c[nH]c5ccccc45)C(=O)N[C@@H](CCC(N)=O)C(N)=O)NC(=O)[C@H](CCC(N)=O)NC(=O)[C@H](Cc4ccccc4)NC(=O)[C@H](C)NC(=O)[C@H](C)NC(=O)[C@H](CCC(=O)O)NC(=O)[C@H](CC(=O)O)NC3=O)NC1=O)CCCN2C(C)=O` (stereo partly drawn) [I-181, Ac-PL3-Asp-Ile-B5-Asp-Glu-Ala-Ala-Phe-Gln-S8-Phe-Trp-Gln-NH2], for which the IC50 in series [1] (setting [4]) and in series [1] (setting [5]) was 310 nM in each case. For the same molecule, the “CHI Log D” value in series [2] is 2.213. Besides, the EC50 in series [3] was determined as 51 nM.

Regarding `CC[C@H](C)[C@@H]1NC(=O)[C@H](CC(=O)O)NC(=O)[C@]2(CC=CCCCC3(CCCC=CCOC(=O)N(C)CCC[C@@](C)(C(=O)N[C@@H](Cc4ccccc4)C(=O)N[C@@H](Cc4c[nH]c5ccccc45)C(=O)N[C@@H](Cc4c[nH]cn4)C(N)=O)NC(=O)[C@H](CCC(N)=O)NC(=O)[C@H](Cc4ccccc4)NC(=O)[C@H](C)NC(=O)[C@H](C)NC(=O)[C@H](CC(=O)O)NC(=O)[C@H](CC(=O)O)NC3=O)NC1=O)CCCN2C(C)=O` (stereo partly drawn) [I-188, Ac-PL3-Asp-Ile-B5-Asp-Asp-Ala-Ala-Phe-Gln-SeN-Phe-Trp-His-NH2], the IC50 in series [1] (setting [4]) and in series [1] (setting [5]) was 1600 nM each time. In addition, in series [2], the “CHI Log D” value is on record as 1.611. In series [3], the EC50 came out at 156 nM.

As for `CC[C@H](C)[C@@H]1NC(=O)[C@H](CC(=O)O)NC(=O)[C@]2(CC=CCCCC3(CCCC=CCOC(=O)N(C)CCC[C@@](C)(C(=O)N[C@@H](Cc4ccccc4)C(=O)N[C@@H](Cc4c[nH]c5ccccc45)C(=O)N[C@@H](Cc4c[nH]cn4)C(N)=O)NC(=O)[C@H](CCC(N)=O)NC(=O)[C@H](Cc4ccccc4)NC(=O)[C@H](C)NC(=O)[C@H](C)NC(=O)[C@H](CC(=O)O)NC(=O)[C@H](CC(=O)O)NC3=O)NC1=O)CCCN2C(C)=O` (stereo partly drawn) [I-189, Ac-PL3-Asp-Ile-B5-Asp-Asp-Ala-Ala-Phe-Gln-SeN-Phe-Trp-His-NH2], in series [1] (setting [5]), the IC50 was 1600 nM. Moreover, in series [2], the “CHI Log D” value was 1.611. In addition, the EC50 in series [3] came to 156 nM.

As for `CC[C@H](C)[C@@H]1NC(=O)[C@H](CC(=O)O)NC(=O)[C@]2(CC=CCCCC3(CCCC=CCOC(=O)N(C)CCC[C@@](C)(C(=O)N[C@@H](Cc4ccccc4)C(=O)N[C@@H](Cc4c[nH]c5ccccc45)C(=O)N[C@@H](Cc4c[nH]cn4)C(N)=O)NC(=O)[C@H](CCC(N)=O)NC(=O)[C@H](Cc4ccccc4)NC(=O)[C@H](C)NC(=O)[C@H](C)NC(=O)[C@H](CC(=O)O)NC(=O)[C@H](CC(=O)O)NC3=O)NC1=O)CCCN2C(C)=O` (stereo partly drawn) [I-190, Ac-PL3-Asp-Ile-B5-Asp-Asp-Ala-Ala-Phe-Gln-SeN-Phe-Trp-His-NH2], the IC50 in series [1] (setting [4]) and in series [1] (setting [5]) was 696 nM in each case. For the same molecule, the “CHI Log D” value in series [2] is recorded as 1.736. The same molecule showed an EC50 in series [3] of 94 nM.

Consider `CC[C@H](C)[C@@H]1NC(=O)[C@H](CC(=O)O)NC(=O)[C@]2(CC=CCCCC3(CCCC=CCCCCCC[C@@](C)(C(=O)N[C@@H](Cc4ccccc4)C(=O)N[C@@H](Cc4c[nH]c5ccccc45)C(N)=O)NC(=O)[C@H](CCC(N)=O)NC(=O)[C@H](Cc4ccccc4)NC(=O)[C@H](C)NC(=O)[C@H](C)NC(=O)[C@H](CCC(=O)O)NC(=O)[C@H](CC(=O)O)NC3=O)NC1=O)CCCN2C(C)=O` (stereo partly drawn) [I-191, Ac-PL3-Asp-Ile-B5-Asp-Glu-Ala-Ala-Phe-Gln-S8-Phe-Trp-NH2], for which the IC50 in series [1] (setting [4]) and in series [1] (setting [5]) was 1660 nM throughout. Further, the “CHI Log D” value in series [2] stood at 2.412. This molecule also gave an EC50 in series [3] of 240 nM.

`CC[C@H](C)[C@@H]1NC(=O)[C@H](CC(=O)O)NC(=O)[C@]2(CC=CCCCC3(CCCC=CCCCCCC[C@@](C)(C(=O)N[C@@H](Cc4ccccc4)C(=O)N[C@@H](Cc4c[nH]c5ccccc45)C(N)=O)NC(=O)[C@H](CCC(N)=O)NC(=O)[C@H](Cc4ccccc4)NC(=O)[C@H](C)NC(=O)[C@H](C)NC(=O)[C@H](CCC(=O)O)NC(=O)[C@H](CC(=O)O)NC3=O)NC1=O)CCCN2C(C)=O` (stereo partly drawn) [I-192, Ac-PL3-Asp-Ile-B5-Asp-Glu-Ala-Ala-Phe-Gln-S8-Phe-Trp-NH2]: the IC50 in series [1] (setting [5]) turned out to be 1660 nM. The “CHI Log D” value in series [2] came out at 2.412. Moreover, in series [3], the EC50 came to 240 nM.

Regarding `CC[C@H](C)[C@@H]1NC(=O)[C@H](CC(=O)O)NC(=O)[C@]2(CC=CCCCC3(CCCC=CCCCCCC[C@@](C)(C(=O)N[C@@H](Cc4ccccc4)C(=O)N[C@@H](Cc4c[nH]c5ccccc45)C(N)=O)NC(=O)[C@H](CCC(N)=O)NC(=O)[C@H](Cc4ccccc4)NC(=O)[C@H](C)NC(=O)[C@H](C)NC(=O)[C@H](CCC(=O)O)NC(=O)[C@H](CC(=O)O)NC3=O)NC1=O)CCCN2C(C)=O` (stereo partly drawn) [I-193, Ac-PL3-Asp-Ile-B5-Asp-Glu-Ala-Ala-Phe-Gln-S8-Phe-Trp-NH2], the IC50 in series [1] (setting [4]) and in series [1] (setting [5]) was 533 nM throughout. Also, in series [2], the “CHI Log D” value was found to be 2.462. The same molecule came in with an EC50 in series [3] of 76 nM.
